System: plants
Assay: Test D pre-emergence, other plants of Tables D1 and D3
Format: in vivo
Settings: preemergent, 20 DAA
Description: A formulation containing 50 g/L of the test chemical was prepared by dissolving the active ingredient in a mixture of organic solvents and emulsifier, details of which are provided in the table. This formulation was then mixed with a small, variable amount of acetone to aid dissolution, before addition of a 0.2% v/v aqueous solution of an adjuvant, as the aqueous diluent, to form an aqueous spray solution which contains a predetermined concentration of the active ingredient.
This aqueous spray solution was then sprayed onto plants including maize and wheat that had been seed treated with a herbicide safener, after one day's cultivation (for pre-emergence) or after about 12 days' cultivation (for post-emergence). The plants were grown from seeds sown in standard soil, placed in a glasshouse under controlled conditions (at 24/18° C. or 20/16° C., day/night; 16 h light; 65% humidity). After spray application the plants were then grown in a glasshouse under the same conditions and watered twice daily. After 15 d for post-emergence and 20 DAA for pre-emergence the test was evaluated (100=total damage to plant; 0=no damage to plant).

CN1CC(c2cc(C(F)(F)F)n(C)n2)C(C(=O)Nc2cccc(F)c2F)C1=O (racemic) [Compound 3]
20: damage to plant (100=total damage to plant; 0=no damage to plant), BRAPL (rate 15) | damage to plant (100=total damage to plant; 0=no damage to plant), DIGSA (rate 15) | damage to plant (100=total damage to plant; 0=no damage to plant), ECHCG (rate 15)
100: damage to plant (100=total damage to plant; 0=no damage to plant), BRAPL (rate 130) | damage to plant (100=total damage to plant; 0=no damage to plant), BRAPL (rate 250) | damage to plant (100=total damage to plant; 0=no damage to plant), BRAPL (rate 500) | damage to plant (100=total damage to plant; 0=no damage to plant), DIGSA (rate 130) | damage to plant (100=total damage to plant; 0=no damage to plant), DIGSA (rate 250) | damage to plant (100=total damage to plant; 0=no damage to plant), DIGSA (rate 500) | damage to plant (100=total damage to plant; 0=no damage to plant), ECHCG (rate 250) | damage to plant (100=total damage to plant; 0=no damage to plant), ECHCG (rate 500)
50: damage to plant (100=total damage to plant; 0=no damage to plant), BRAPL (rate 30)
30: damage to plant (100=total damage to plant; 0=no damage to plant), SETFA (rate 30)
60: damage to plant (100=total damage to plant; 0=no damage to plant), SIDSP (rate 250) | damage to plant (100=total damage to plant; 0=no damage to plant), SIDSP (rate 500)
80: damage to plant (100=total damage to plant; 0=no damage to plant), SETFA (rate 60)
0: damage to plant (100=total damage to plant; 0=no damage to plant), ABUTH (rate 15) | damage to plant (100=total damage to plant; 0=no damage to plant), ABUTH (rate 30) | damage to plant (100=total damage to plant; 0=no damage to plant), ABUTH (rate 60) | damage to plant (100=total damage to plant; 0=no damage to plant), ABUTH (rate 130) | damage to plant (100=total damage to plant; 0=no damage to plant), ABUTH (rate 250) | damage to plant (100=total damage to plant; 0=no damage to plant), ABUTH (rate 500) | damage to plant (100=total damage to plant; 0=no damage to plant), BIDPI (rate 15) | damage to plant (100=total damage to plant; 0=no damage to plant), BIDPI (rate 30) | damage to plant (100=total damage to plant; 0=no damage to plant), BIDPI (rate 60) | damage to plant (100=total damage to plant; 0=no damage to plant), BIDPI (rate 130) | damage to plant (100=total damage to plant; 0=no damage to plant), BIDPI (rate 250) | damage to plant (100=total damage to plant; 0=no damage to plant), BIDPI (rate 500) | damage to plant (100=total damage to plant; 0=no damage to plant), CYPES (rate 15) | damage to plant (100=total damage to plant; 0=no damage to plant), CYPES (rate 30) | damage to plant (100=total damage to plant; 0=no damage to plant), CYPES (rate 60) | damage to plant (100=total damage to plant; 0=no damage to plant), CYPES (rate 130) | damage to plant (100=total damage to plant; 0=no damage to plant), CYPES (rate 250) | damage to plant (100=total damage to plant; 0=no damage to plant), ELEIN (rate 15) | damage to plant (100=total damage to plant; 0=no damage to plant), ELEIN (rate 30) | damage to plant (100=total damage to plant; 0=no damage to plant), ELEIN (rate 60) | damage to plant (100=total damage to plant; 0=no damage to plant), ELEIN (rate 130) | damage to plant (100=total damage to plant; 0=no damage to plant), ELEIN (rate 250) | damage to plant (100=total damage to plant; 0=no damage to plant), ELEIN (rate 500) | damage to plant (100=total damage to plant; 0=no damage to plant), EPHHL (rate 15) | damage to plant (100=total damage to plant; 0=no damage to plant), EPHHL (rate 30) | damage to plant (100=total damage to plant; 0=no damage to plant), EPHHL (rate 60) | damage to plant (100=total damage to plant; 0=no damage to plant), EPHHL (rate 130) | damage to plant (100=total damage to plant; 0=no damage to plant), GLXMA (rate 15) | damage to plant (100=total damage to plant; 0=no damage to plant), GLXMA (rate 30) | damage to plant (100=total damage to plant; 0=no damage to plant), GLXMA (rate 60) | damage to plant (100=total damage to plant; 0=no damage to plant), GLXMA (rate 130) | damage to plant (100=total damage to plant; 0=no damage to plant), GLXMA (rate 250) | damage to plant (100=total damage to plant; 0=no damage to plant), IPOHE (rate 15) | damage to plant (100=total damage to plant; 0=no damage to plant), IPOHE (rate 30) | damage to plant (100=total damage to plant; 0=no damage to plant), IPOHE (rate 60) | damage to plant (100=total damage to plant; 0=no damage to plant), IPOHE (rate 130) | damage to plant (100=total damage to plant; 0=no damage to plant), IPOHE (rate 250) | damage to plant (100=total damage to plant; 0=no damage to plant), IPOHE (rate 500) | damage to plant (100=total damage to plant; 0=no damage to plant), ORYSA (rate 15) | damage to plant (100=total damage to plant; 0=no damage to plant), ORYSA (rate 30) | damage to plant (100=total damage to plant; 0=no damage to plant), ORYSA (rate 60) | damage to plant (100=total damage to plant; 0=no damage to plant), ORYSA (rate 130) | damage to plant (100=total damage to plant; 0=no damage to plant), ORYSA (rate 250) | damage to plant (100=total damage to plant; 0=no damage to plant), ORYSA (rate 500) | damage to plant (100=total damage to plant; 0=no damage to plant), PANMI (rate 15) | damage to plant (100=total damage to plant; 0=no damage to plant), PANMI (rate 30) | damage to plant (100=total damage to plant; 0=no damage to plant), PANMI (rate 60) | damage to plant (100=total damage to plant; 0=no damage to plant), PANMI (rate 130) | damage to plant (100=total damage to plant; 0=no damage to plant), PANMI (rate 250) | damage to plant (100=total damage to plant; 0=no damage to plant), PANMI (rate 500) | damage to plant (100=total damage to plant; 0=no damage to plant), SETFA (rate 15) | damage to plant (100=total damage to plant; 0=no damage to plant), SIDSP (rate 15) | damage to plant (100=total damage to plant; 0=no damage to plant), SIDSP (rate 30) | damage to plant (100=total damage to plant; 0=no damage to plant), SIDSP (rate 130) | damage to plant (100=total damage to plant; 0=no damage to plant), SORVU (rate 15) | damage to plant (100=total damage to plant; 0=no damage to plant), SORVU (rate 30) | damage to plant (100=total damage to plant; 0=no damage to plant), SORVU (rate 60) | damage to plant (100=total damage to plant; 0=no damage to plant), SORVU (rate 130) | damage to plant (100=total damage to plant; 0=no damage to plant), SORVU (rate 250) | damage to plant (100=total damage to plant; 0=no damage to plant), SORVU (rate 500)
90: damage to plant (100=total damage to plant; 0=no damage to plant), BRAPL (rate 60) | damage to plant (100=total damage to plant; 0=no damage to plant), DIGSA (rate 30) | damage to plant (100=total damage to plant; 0=no damage to plant), DIGSA (rate 60) | damage to plant (100=total damage to plant; 0=no damage to plant), ECHCG (rate 30) | damage to plant (100=total damage to plant; 0=no damage to plant), ECHCG (rate 60) | damage to plant (100=total damage to plant; 0=no damage to plant), ECHCG (rate 130) | damage to plant (100=total damage to plant; 0=no damage to plant), SETFA (rate 130) | damage to plant (100=total damage to plant; 0=no damage to plant), SETFA (rate 250) | damage to plant (100=total damage to plant; 0=no damage to plant), SETFA (rate 500)
10: damage to plant (100=total damage to plant; 0=no damage to plant), CYPES (rate 500) | damage to plant (100=total damage to plant; 0=no damage to plant), EPHHL (rate 250) | damage to plant (100=total damage to plant; 0=no damage to plant), EPHHL (rate 500) | damage to plant (100=total damage to plant; 0=no damage to plant), GLXMA (rate 500)

From patent US20220281848A1, “PYRAZOLE-SUBSTITUTED PYRROLIDINONES AS HERBICIDES” (FMC Corporation, priority 2019, published 2022)
